Results from US20230310459A1, “NEUROACTIVE STEROIDS AND THEIR METHODS OF USE” (Sage Therapeutics, Inc., priority 2017, published 2023).
Where two headings read alike, the source gives them in different places.

Experiment: Phase 1 four-period crossover study of relative bioavailability and food effect, Compound 1 Capsules vs Oral Solution, plasma PK
Assay type: in vivo, human
Details: for AUC(0-inf) / AUC(0-t) / Cmax / half-life / Tmax: human, po; for AUC(0-inf) / AUC(0-t) / Cmax / half-life / Tmax / AUC0-inf, geometric mean / AUC0-t, geometric mean / Cmax, geometric mean: plasma, healthy subjects; for AUC(0-inf) / AUC(0-t) / Cmax / half-life / Tmax / AUC0-inf geometric mean ratio (GMR) Test/Reference / AUC0-t geometric mean ratio (GMR) Test/Reference / Cmax geometric mean ratio (GMR) Test/Reference: 30 mg; for Tmax: read-out: tmax, median
Procedure: In a Phase 1, single-center, open-label, four-period, two-sequence crossover study, Compound 1 capsules were evaluated for safety, tolerability, and relative bioavailability. Twelve (12) subjects completed all four periods of the study; subjects who replaced discontinued subjects were allocated to the same randomization sequence as those discontinued. Up to 24 subjects were recruited into the study.
This study consisted of four periods:
Period 1: Subjects (N=20) were randomized on a 1:1 basis to receive a single 30-mg dose of Compound 1 Capsules or a single 30-mg dose of Compound 1 Oral Solution on Day 1. Study drug was administered in the fasting state. Subjects were confined to the inpatient facility from Day −1 until they were discharged on Day 3.
On Day 8, study drug was administered in the fasting state. Subjects were confined to the inpatient facility from Day 7 until they were discharged on Day 10.
Period 3: Food Effect (high fat): All subjects received a single 30 mg dose of Compound 1 Capsules on Day 15. Study drug was administered after a high-fat meal. Subjects were confined to the inpatient facility from Day 14 until they were discharged on Day 17.
Period 4: Food Effect (standard): All subjects received a single 30 mg dose of Compound 1 Capsules on Day 22. Study drug was administered after a standard meal. Subjects were confined to the inpatient facility from Day 21 until they were discharged on Day 24.
Subjects were admitted on the day before the dose was scheduled to be administered (i.e., on Day −1, Day 7, Day 14 and Day 21) in order to undergo the predose assessments.
The Compound 1 Capsules dose was administered as two capsules with 8 ounces (240 mL) of water; both capsules were to be swallowed as quickly as possible. Compound 1 Oral Solution was prepared as approximately 40 mL, to be swallowed all at once, followed by approximately 200 mL of water that was used to rinse the dosing bottle approximately five times. The time of swallowing the initial 40 mL solution or capsules was the time zero for all assessments.
Subjects were not allowed to consume water for 1 hour before and after dosing, except for water consumed during dosing. After 1 hour postdose, water was allowed ad libitum. Subjects were required to fast overnight (minimum of 10 hours) prior to the scheduled dosing. In periods 1 and 2, subjects were administered a standard meal 4 or more hours after the dose was administered.
In period 3 (food effect high-fat meal), subjects were administered a high-fat meal 30 minutes prior to administration of the Compound 1 Capsules. Subjects should have eaten this meal in 30 minutes or less, and the Compound 1 dose was administered 30 minutes after the start of the meal. No other food was allowed for at least 4 hours postdose.
In period 4 (food effect standard meal), subjects were administered a standard meal 30 minutes prior to administration of the Compound 1 Capsules. Subjects should have eaten this meal in 30 minutes or less, and the Compound 1 dose was administered 30 minutes after start of the meal. No other food was allowed for at least 4 hours postdose.
Plasma samples were collected for PK analysis of Compound 1 at the following sampling times relative to dosing in each period: predose on Day 1 and at 15 and 30 minutes and 1, 1.5, 2, 3, 4, 6, 8, 10, 12, 16, 24 (Day 2), and 48 (Day 3) hours postdose.
The plasma samples were kept frozen at approximately −70 to −80° C. until analyzed. They were packed as directed to avoid breakage during transit and with sufficient dry ice to prevent thawing for at least 72 hours. A specimen-identification form or equivalent was completed and sent to the laboratory with each set of samples.
Bioanalyses of plasma samples for the determination of Compound 1 were conducted utilizing validated LC-MS/MS methods at Agilux Laboratories, Worcester, MA.
The BLQ values between evaluable concentrations and the terminal BLQ values were set to ‘missing’. […]

[1] = single 30 mg oral dose, Capsules, fed [high-fat meal]
[2] = single 30 mg oral dose, Capsules, fed [standard meal]
[3] = single 30-mg oral dose, Capsules, fasted
[4] = single 30-mg oral dose, Oral Solution, fasted
[5] = test Fasted Capsules / reference Fasted Solution
[6] = test Fed Capsules [Standard meal] / reference Fasted Capsules
[7] = test Fed Capsules [Standard meal] / reference Fasted Solution
[8] = test Fed Capsules [high-fat meal] / reference Fasted Capsules
[9] = test Fed Capsules [high-fat meal] / reference Fasted Solution

`C[C@@]1(O)CC[C@H]2[C@H](CC[C@@H]3[C@@H]2CC[C@]2(C)[C@@H](C(=O)Cn4cc(C#N)cn4)CC[C@@H]32)C1` [Compound 1, 1-(2-((3R,5R,8R,9R,10S,13S,14S,17S)-3-hydroxy-3,13-dimethylhexadecahydro-1H-cyclopenta[a]phenanthren-17-yl)-2-oxoethyl)-1H-pyrazole-4-carbonitrile] showed an AUC(0-inf) (single 30 mg oral dose, Capsules, fed [high-fat meal], read-out: AUC0-inf, arithmetic mean) of 896 ng·h/mL, an AUC(0-inf) (single 30 mg oral dose, Capsules, fed [high-fat meal], read-out: AUC0-inf, geometric mean) of 867 ng·h/mL and an AUC(0-inf) (single 30 mg oral dose, Capsules, fed [high-fat meal], read-out: AUC0-inf, median) of 878 ng·h/mL. It also gave an AUC(0-t) (single 30 mg oral dose, Capsules, fed [high-fat meal], read-out: AUC0-t, arithmetic mean) of 846 ng·h/mL, an AUC(0-t) (single 30 mg oral dose, Capsules, fed [high-fat meal], read-out: AUC0-t, geometric mean) of 834 ng·h/mL and an AUC(0-t) (single 30 mg oral dose, Capsules, fed [high-fat meal], read-out: AUC0-t, median) of 822 ng·h/mL. It also gave a Cmax (single 30 mg oral dose, Capsules, fed [high-fat meal], read-out: Cmax, arithmetic mean) of 64.4 ng/mL, a Cmax (single 30 mg oral dose, Capsules, fed [high-fat meal], read-out: Cmax, geometric mean) of 62.8 ng/mL and a Cmax (single 30 mg oral dose, Capsules, fed [high-fat meal], read-out: Cmax, median) of 66.3 ng/mL. It also gave a half-life (single 30 mg oral dose, Capsules, fed [high-fat meal], read-out: t1/2, arithmetic mean (converted)) of 12.9 h, a half-life (single 30 mg oral dose, Capsules, fed [high-fat meal], read-out: t1/2, median (converted)) of 12.7 h and a Tmax [1] of 5.97 h. The AUC(0-inf) (single 30 mg oral dose, Capsules, fed [standard meal], read-out: AUC0-inf, arithmetic mean) was 1020 ng·h/mL, the AUC(0-inf) (single 30 mg oral dose, Capsules, fed [standard meal], read-out: AUC0-inf, geometric mean) was 1010 ng·h/mL and the AUC(0-inf) (single 30 mg oral dose, Capsules, fed [standard meal], read-out: AUC0-inf, median) was 1060 ng·h/mL. It also gave an AUC(0-t) (single 30 mg oral dose, Capsules, fed [standard meal], read-out: AUC0-t, arithmetic mean) of 852 ng·h/mL, an AUC(0-t) (single 30 mg oral dose, Capsules, fed [standard meal], read-out: AUC0-t, geometric mean) of 838 ng·h/mL and an AUC(0-t) (single 30 mg oral dose, Capsules, fed [standard meal], read-out: AUC0-t, median) of 881 ng·h/mL. It also gave a Cmax (single 30 mg oral dose, Capsules, fed [standard meal], read-out: Cmax, arithmetic mean) of 65.2 ng/mL, a Cmax (single 30 mg oral dose, Capsules, fed [standard meal], read-out: Cmax, geometric mean) of 63.1 ng/mL and a Cmax (single 30 mg oral dose, Capsules, fed [standard meal], read-out: Cmax, median) of 63.2 ng/mL. It also gave a half-life (single 30 mg oral dose, Capsules, fed [standard meal], read-out: t1/2, arithmetic mean (converted)) of 14.9 h, a half-life (single 30 mg oral dose, Capsules, fed [standard meal], read-out: t1/2, median (converted)) of 15.8 h and a Tmax [2] of 4 h. It also gave an AUC(0-inf) (single 30-mg oral dose, Capsules, fasted, read-out: AUC0-inf, arithmetic mean) of 642 ng·h/mL, an AUC(0-inf) (single 30-mg oral dose, Capsules, fasted, read-out: AUC0-inf, geometric mean) of 640 ng·h/mL and an AUC(0-inf) (single 30-mg oral dose, Capsules, fasted, read-out: AUC0-inf, median) of 650 ng·h/mL. For the same molecule, the AUC(0-t) (single 30-mg oral dose, Capsules, fasted, read-out: AUC0-t, arithmetic mean) was 544 ng·h/mL, the AUC(0-t) (single 30-mg oral dose, Capsules, fasted, read-out: AUC0-t, geometric mean) was 530 ng·h/mL and the AUC(0-t) (single 30-mg oral dose, Capsules, fasted, read-out: AUC0-t, median) was 552 ng·h/mL. It also gave a Cmax (single 30-mg oral dose, Capsules, fasted, read-out: Cmax, arithmetic mean) of 23 ng/mL, a Cmax (single 30-mg oral dose, Capsules, fasted, read-out: Cmax, geometric mean) of 21.8 ng/mL and a Cmax (single 30-mg oral dose, Capsules, fasted, read-out: Cmax, median) of 20.4 ng/mL. The half-life (single 30-mg oral dose, Capsules, fasted, read-out: t1/2, arithmetic mean (converted)) was 15.6 h, the half-life (single 30-mg oral dose, Capsules, fasted, read-out: t1/2, median (converted)) was 15.7 h and the Tmax [3] was 4.02 h. The AUC(0-inf) (single 30-mg oral dose, Oral Solution, fasted, read-out: AUC0-inf, arithmetic mean) was 798 ng·h/mL, the AUC(0-inf) (single 30-mg oral dose, Oral Solution, fasted, read-out: AUC0-inf, geometric mean) was 770 ng·h/mL and the AUC(0-inf) (single 30-mg oral dose, Oral Solution, fasted, read-out: AUC0-inf, median) was 816 ng·h/mL. The AUC(0-t) (single 30-mg oral dose, Oral Solution, fasted, read-out: AUC0-t, arithmetic mean) was 795 ng·h/mL, the AUC(0-t) (single 30-mg oral dose, Oral Solution, fasted, read-out: AUC0-t, geometric mean) was 776 ng·h/mL and the AUC(0-t) (single 30-mg oral dose, Oral Solution, fasted, read-out: AUC0-t, median) was 788 ng·h/mL. For the same molecule, the Cmax (single 30-mg oral dose, Oral Solution, fasted, read-out: Cmax, arithmetic mean) was 120 ng/mL, the Cmax (single 30-mg oral dose, Oral Solution, fasted, read-out: Cmax, geometric mean) was 114 ng/mL and the Cmax (single 30-mg oral dose, Oral Solution, fasted, read-out: Cmax, median) was 115 ng/mL. The half-life (single 30-mg oral dose, Oral Solution, fasted, read-out: t1/2, arithmetic mean (converted)) was 13.5 h, the half-life (single 30-mg oral dose, Oral Solution, fasted, read-out: t1/2, median (converted)) was 13.3 h and the Tmax [4] was 1 h. For the same molecule, the “AUC0-inf, geometric mean” value [1] was 866.90 ng·h/mL, the “AUC0-t, geometric mean” value [1] was 834.06 ng·h/mL and the “AUC0-inf, geometric mean” value [2] was 1013.04 ng·h/mL. For the same molecule, the “AUC0-t, geometric mean” value [2] was 837.55 ng·h/mL, the “Cmax, geometric mean” value [2] was 63.12 ng/mL and the “AUC0-inf, geometric mean” value [3] was 639.69 ng·h/mL. The “AUC0-t, geometric mean” value [3] was 529.62 ng·h/mL, the “Cmax, geometric mean” value [3] was 21.81 ng/mL and the “AUC0-inf, geometric mean” value [4] was 770.31 ng·h/mL. For the same molecule, the “AUC0-t, geometric mean” value [4] was 776.27 ng·h/mL, the “AUC0-inf geometric mean ratio (GMR) Test/Reference” value [5] was 0.830 and the “AUC0-t geometric mean ratio (GMR) Test/Reference” value [5] was 0.682. The “Cmax geometric mean ratio (GMR) Test/Reference” value [5] was 0.191, the “AUC0-inf geometric mean ratio (GMR) Test/Reference” value [6] was 1.584 and the “AUC0-t geometric mean ratio (GMR) Test/Reference” value [6] was 1.581. For the same molecule, the “Cmax geometric mean ratio (GMR) Test/Reference” value [6] was 2.894, the “AUC0-inf geometric mean ratio (GMR) Test/Reference” value [7] was 1.315 and the “AUC0-t geometric mean ratio (GMR) Test/Reference” value [7] was 1.079. For the same molecule, the “Cmax geometric mean ratio (GMR) Test/Reference” value [7] was 0.552, the “AUC0-inf geometric mean ratio (GMR) Test/Reference” value [8] was 1.355 and the “AUC0-t geometric mean ratio (GMR) Test/Reference” value [8] was 1.575. The “Cmax geometric mean ratio (GMR) Test/Reference” value [8] was 2.879, the “AUC0-inf geometric mean ratio (GMR) Test/Reference” value [9] was 1.125 and the “AUC0-t geometric mean ratio (GMR) Test/Reference” value [9] was 1.074. The “Cmax geometric mean ratio (GMR) Test/Reference” value [9] was 0.549.
